The source made the active and inactive calls. The rule behind the calls is not given here.
How the values were obtained:
[1] = Tmax in Sprague-Dawley rat at 21 mg/kg, ip and measured upto 24 hrs by LC-MS analysis; format: ADME, organism-based; conditions: in vivo
[2] = system: HEK293; assay: Induction of apoptosis in Wnt-independent human HEK293 cells assessed as early apoptotic cells at 20 uM incubated for 24 hrs by Annexin V-Alexa Fluor 647/PI staining based flow cytomtery (Rvb=17.4%); format: functional
[3] = system: CT26; assay: Antitumor activity in mouse CT26 cells xenografted in BALB/c mouse assessed as increase in CD8+ T cell infiltration into tumor at 30 mg/kg, ip QD by flow cytometry; format: functional, organism-based
[4] = system: HCT-116; assay: Antiproliferative activity against Wnt-dependent human HCT-116 cells assessed as cell growth inhibition incubated for 48 hrs by CellTiter-Glo assay; format: functional, cell-based
[5] = system: CT26; conditions: Mus musculus, BALB/c, dose 30.0 mg/kg, route ip
Description: In vivo inhibition of Wnt signaling pathway in mouse CT26 cells implanted in BALB/c mouse assessed as reduction in Cd44 mRNA expression level in tumor at 30 mg/kg, ip QD by qRT-PCR analysis

[6] = system: CT26; assay: Synergistic antitumor activity in mouse CT26 cells xenografted in BALB/c mouse assessed as increase in IFNgamma-positive CD8+ T cell infiltration into tumor at 30 mg/kg, ip QD in presence of anti-PD-1 antibody cotreatment at 10 mg/kg,ip BIW by flow cytometry; format: functional, organism-based
[7] = AUC (0 to infinity) in Sprague-Dawley rat at 21 mg/kg, ip and measured upto 24 hrs by LC-MS analysis; format: ADME, organism-based; design: time < 24 hrs, dose 21 mg/kg, route ip; conditions: in vivo
[8] = system: CT26; assay: Synergistic antitumor activity in mouse CT26 cells xenografted in BALB/c mouse assessed as increase in IFNG mRNA expression level in tumor at 30 mg/kg, ip QD in presence of anti-PD-1 antibody cotreatment at 10 mg/kg,ip BIW by qRT-PCR analysis; format: functional, organism-based
[9] = Toxicity in BALB/c mouse xenografted with mouse CT26 cells assessed as adverse effect at 30 mg/kg, ip QD and measured upto 9 days; format: organism-based; conditions: in vivo, 216 h, time < 9 day
[10] = system: HCT-116; assay: Cytotoxicity against Wnt-dependent human HCT-116 cells assessed as reduction in cell viability at 10 to 20 uM by LDH release assay; format: toxicity, cell-based; conditions: hct-116, 20 µM, dose 10-20 µM
[11] = biological target: T1, beta-catenin-B-cell lymphoma 9 protein complex (Homo sapiens, UniProt P35222); assay: Inhibition of beta-catenin/BCL9 protein-protein interaction in Wnt-independent human A549 cells assessed as reduction in Axin2 expression level by qRT-PCR assay; format: cell-based
T1 sequence (P35222 whole entry): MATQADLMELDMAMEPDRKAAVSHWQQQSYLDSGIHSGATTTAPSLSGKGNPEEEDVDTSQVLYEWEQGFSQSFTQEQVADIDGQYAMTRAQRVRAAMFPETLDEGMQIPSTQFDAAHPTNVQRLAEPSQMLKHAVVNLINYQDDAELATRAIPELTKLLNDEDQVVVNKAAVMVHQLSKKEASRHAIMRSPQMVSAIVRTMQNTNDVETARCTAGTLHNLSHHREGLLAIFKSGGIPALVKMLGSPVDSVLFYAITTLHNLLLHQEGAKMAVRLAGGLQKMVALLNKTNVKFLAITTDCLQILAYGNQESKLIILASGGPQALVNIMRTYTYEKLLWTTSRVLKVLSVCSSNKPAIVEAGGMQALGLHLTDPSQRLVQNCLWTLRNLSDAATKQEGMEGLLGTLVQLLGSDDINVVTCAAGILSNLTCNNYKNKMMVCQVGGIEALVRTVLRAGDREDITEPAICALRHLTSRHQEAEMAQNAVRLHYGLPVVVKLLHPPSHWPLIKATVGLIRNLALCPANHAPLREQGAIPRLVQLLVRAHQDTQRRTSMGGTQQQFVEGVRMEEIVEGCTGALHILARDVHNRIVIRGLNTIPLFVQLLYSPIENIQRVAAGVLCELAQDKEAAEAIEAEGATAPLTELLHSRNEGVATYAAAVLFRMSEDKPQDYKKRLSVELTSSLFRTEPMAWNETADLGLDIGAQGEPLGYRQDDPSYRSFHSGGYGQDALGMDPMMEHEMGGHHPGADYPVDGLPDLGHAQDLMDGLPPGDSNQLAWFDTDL
T1 sequence (O00512 whole entry): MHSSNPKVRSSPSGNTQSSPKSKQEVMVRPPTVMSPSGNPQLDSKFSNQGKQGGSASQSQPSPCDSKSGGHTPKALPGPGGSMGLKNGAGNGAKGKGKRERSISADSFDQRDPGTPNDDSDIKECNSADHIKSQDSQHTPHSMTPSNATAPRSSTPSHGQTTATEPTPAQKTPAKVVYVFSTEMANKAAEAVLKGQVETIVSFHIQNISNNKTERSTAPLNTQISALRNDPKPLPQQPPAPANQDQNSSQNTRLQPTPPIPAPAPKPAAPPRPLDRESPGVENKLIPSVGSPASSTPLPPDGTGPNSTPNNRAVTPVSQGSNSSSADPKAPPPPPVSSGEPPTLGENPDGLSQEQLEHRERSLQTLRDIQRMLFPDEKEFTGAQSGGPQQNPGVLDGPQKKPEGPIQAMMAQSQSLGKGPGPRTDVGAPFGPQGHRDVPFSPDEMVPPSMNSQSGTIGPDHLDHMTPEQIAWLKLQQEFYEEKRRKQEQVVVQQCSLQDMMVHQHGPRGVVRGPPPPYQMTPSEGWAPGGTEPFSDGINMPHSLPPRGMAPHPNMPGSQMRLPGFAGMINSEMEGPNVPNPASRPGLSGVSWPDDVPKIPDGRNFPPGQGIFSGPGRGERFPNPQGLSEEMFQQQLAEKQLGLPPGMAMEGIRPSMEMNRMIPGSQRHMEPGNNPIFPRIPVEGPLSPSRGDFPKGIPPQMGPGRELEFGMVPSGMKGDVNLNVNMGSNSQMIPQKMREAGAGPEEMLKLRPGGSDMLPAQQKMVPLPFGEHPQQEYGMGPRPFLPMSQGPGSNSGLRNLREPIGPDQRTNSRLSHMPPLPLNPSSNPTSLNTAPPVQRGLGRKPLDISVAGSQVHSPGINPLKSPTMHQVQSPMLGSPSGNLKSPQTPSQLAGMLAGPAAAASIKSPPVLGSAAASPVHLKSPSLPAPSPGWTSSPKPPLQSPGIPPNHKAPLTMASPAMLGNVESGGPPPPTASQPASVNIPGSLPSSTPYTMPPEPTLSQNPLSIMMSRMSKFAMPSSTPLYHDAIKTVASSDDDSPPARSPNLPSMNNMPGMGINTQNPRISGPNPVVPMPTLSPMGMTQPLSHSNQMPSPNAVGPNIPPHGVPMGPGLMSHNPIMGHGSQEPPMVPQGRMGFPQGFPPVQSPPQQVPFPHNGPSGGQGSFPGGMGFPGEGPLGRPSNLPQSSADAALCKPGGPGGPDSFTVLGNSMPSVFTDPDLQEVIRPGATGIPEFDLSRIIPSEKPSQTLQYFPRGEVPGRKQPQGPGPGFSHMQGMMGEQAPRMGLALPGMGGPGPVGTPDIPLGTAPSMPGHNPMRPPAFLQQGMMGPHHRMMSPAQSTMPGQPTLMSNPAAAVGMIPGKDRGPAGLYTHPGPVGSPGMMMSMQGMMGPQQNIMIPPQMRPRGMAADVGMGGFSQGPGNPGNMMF

Row | Tmax [1] [min] | AUC(0-inf) [7] [ng·h/mL] | IC50 [11] [µM] | SMILES | Activity [2] [%] | Activity [3] | Activity [4] | inhibition [5] | Activity [6] | Activity [8] | Activity [9] | Activity [10]
1 | 30 | 17400 |  | CC(C)c1ccc(-c2cccc(S(=O)(=O)N3CCCC(c4cccc(OC(C)(C)C(=O)NS(=O)(=O)c5ccc(C(F)(F)F)cc5)c4)C3)c2)cc1 (stereo unspecified) | 17 | Active | Active | Active | Active | Active | Non-Toxic | Non-Toxic
2 |  |  | 24.7 | O=C1[C@H](Cc2ccc(O)cc2)N2C(=O)CCN(C(=O)NCc3ccccc3)[C@H]2CN1Cc1cccc2ccccc12 |  |  |  |  |  |  |  | 

Source: ChEMBL document CHEMBL5316313, “Discovery of Novel 3-Phenylpiperidine Derivatives Targeting the β-Catenin/B-Cell Lymphoma 9 Interaction as a Single Agent and in Combination with the Anti-PD-1 Antibody for the Treatment of Colorectal Cancer” (J Med Chem, 2023)
